Experimental data taken from ChEMBL document CHEMBL1201862, “PubChem BioAssay data set” (2004).
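Cultured in 96-well plates, cells were exposed to test compound for 48 hours across five concentrations. At the GI50, growth is halved.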 Calls of active or inactive are those of the source. Rule as the data show it: active = GI50 up to about 1.1 µM and inactive = higher.

What was measured:
Assay in all cases: NCI anticancer screen, dose series, 48 h
NCI-H460 = system: NCI-H460
Malme-3M = system: Malme-3M
OVCAR-4 = system: OVCAR-4
OVCAR-3 = system: OVCAR-3
SK-MEL-5 = system: SK-MEL-5
UO-31 = system: UO-31
EKVX = system: EKVX
IGROV-1 = system: IGROV-1
HCT-15 = system: HCT-15
A498 = system: A498
Hs-578T = system: Hs-578T
MOLT-4 = system: MOLT-4
KM12 = system: KM12
HCC 2998 = system: HCC 2998
HOP-92 = system: HOP-92
HT-29 = system: HT-29
SK-MEL-2 = system: SK-MEL-2
BT-549 = system: BT-549
ACHN = system: ACHN

Structure (SMILES) | GI50 (NCI-H460) | GI50 (Malme-3M) | GI50 (OVCAR-4) | GI50 (OVCAR-3) | GI50 (SK-MEL-5) | GI50 (UO-31) | GI50 (EKVX) | GI50 (IGROV-1) | GI50 (HCT-15) [µM] | GI50 (A498) | GI50 (Hs-578T) | GI50 (MOLT-4) | GI50 (KM12) | GI50 (HCC 2998) | GI50 (HOP-92) | GI50 (HT-29) | GI50 (SK-MEL-2) | GI50 (BT-549) | GI50 (ACHN)
CC1=NNC(=O)[C@H]2[C@H]1CCC1[C@@H]2CC[C@]2(C)[C@@H](O)CC[C@@H]12 (stereo partly drawn) | > 100 µM (inactive) | > 100 µM (inactive) | > 100 µM (inactive) | > 100 µM (inactive) | > 100 µM (inactive) | > 100 µM (inactive) | > 100 µM (inactive) | > 100 µM (inactive) | > 100 | > 100 µM (inactive) | > 100 µM (inactive) | > 100 µM (inactive) | > 100 µM (inactive) | > 100 µM (inactive) | > 100 µM (inactive) | > 100 µM (inactive) | > 100 µM (inactive) | > 100 µM (inactive) | > 100 µM (inactive)
O=C1Cc2c(-c3ccccc3)cc(-c3ccc4ccccc4c3)nc2-c2ccccc2N1 | 11.4 µM (inactive) | 7.06 µM (inactive) | 2.9 µM (inactive) | 8.05 µM (inactive) | 4.74 µM (inactive) | 17.3 µM (inactive) | 7.16 µM (inactive) | 1.93 µM (inactive) | 37.8 | 12.7 µM (inactive) | 2.96 µM (inactive) | > 100 µM (inactive) | 4.89 µM (inactive) | 22.6 µM (inactive) | 4.05 µM (inactive) | 3.31 µM (inactive) | 43.9 µM (inactive) | 27.4 µM (inactive) | 3.72 µM (inactive)
O=C(O)c1cc2c(cc1S(=O)(=O)O)C1C(C3C2C2(Cl)C(Cl)=C(Cl)C3(Cl)C2(Cl)Cl)C2(Cl)C(Cl)=C(Cl)C1(Cl)C2(Cl)Cl (stereo not drawn) | 34.6 µM (inactive) | 64.7 µM (inactive) | 38.7 µM (inactive) | 22.9 µM (inactive) | 34.7 µM (inactive) | 44.6 µM (inactive) | 30.2 µM (inactive) | 50.4 µM (inactive) | 45 | 97.1 µM (inactive) | 45.2 µM (inactive) | 27.6 µM (inactive) | 51.4 µM (inactive) | 20.8 µM (inactive) | 29.2 µM (inactive) | 21.8 µM (inactive) | 27 µM (inactive) | 67 µM (inactive) | > 100 µM (inactive)
CN(C)/C=N/S(=O)(=O)c1nn2c(C=O)c(-c3ccc(-c4ccccc4)cc3)nc2s1 | 5.51 µM (inactive) | 1.32 µM (inactive) | 1.96 µM (inactive) | 1.92 µM (inactive) | 1.61 µM (inactive) | 1.4 µM (inactive) | 5.89 µM (inactive) | 1.24 µM (inactive) | 2.26 | 21.3 µM (inactive) | 3.09 µM (inactive) | 0.283 µM (active) | 2.48 µM (inactive) | 6 µM (inactive) | 2.65 µM (inactive) | 0.347 µM (active) | 2.69 µM (inactive) | 0.83 µM (active) | 1.57 µM (inactive)
O=[N+]([O-])c1c(F)c(F)c2c(c1F)Nc1ccccc1S2 | 6 µM (inactive) | 5.55 µM (inactive) | 2.58 µM (inactive) | 2.03 µM (inactive) | 11.6 µM (inactive) | 18.2 µM (inactive) | 6.44 µM (inactive) | 3.08 µM (inactive) | 4.83 | 16.4 µM (inactive) | 7.1 µM (inactive) | 2.61 µM (inactive) | 4.49 µM (inactive) | 2.76 µM (inactive) | 15.2 µM (inactive) | 2.07 µM (inactive) | 2.14 µM (inactive) | 11 µM (inactive) | 15.7 µM (inactive)
NCC(=O)Nc1ccccc1 | > 100 µM (inactive) | > 100 µM (inactive) | > 100 µM (inactive) | > 100 µM (inactive) | > 100 µM (inactive) | > 100 µM (inactive) | > 100 µM (inactive) | > 100 µM (inactive) | > 100 | > 100 µM (inactive) | > 100 µM (inactive) | > 100 µM (inactive) | > 100 µM (inactive) | > 100 µM (inactive) | > 100 µM (inactive) | > 100 µM (inactive) | 87.7 µM (inactive) | > 100 µM (inactive) | > 100 µM (inactive)
C=C(CCC(=O)N(CCc1c[nH]c2ccccc12)C(=O)c1ccccc1CSCC)C(=O)OC | 32.2 µM (inactive) | 48.9 µM (inactive) | 50 µM (inactive) | > 39.5 µM (inactive) | 23.4 µM (inactive) | 27.7 µM (inactive) | 48.2 µM (inactive) | 60.1 µM (inactive) | 26.5 | 49.2 µM (inactive) | 44.5 µM (inactive) | 4.02 µM (inactive) | 8.2 µM (inactive) | 43.7 µM (inactive) | 40.6 µM (inactive) | 19.5 µM (inactive) | 48.6 µM (inactive) | 71.9 µM (inactive) | 31.9 µM (inactive)
